# Results as given in article PMC6597039, “Bioactive secondary metabolites from new endophytic fungus Curvularia. sp isolated from Rauwolfia macrophylla” (PLoS ONE, 2019).
# Assays:
# [1] = DPPH free radical scavenging assay; details: Table 3, unit not given in the table (μM); read-out: EC50 Antioxidant activity (DPPH•)
# [2] = ABTS+ free radical scavenging assay; details: Table 3, unit not given in the table (μM); read-out: EC50 Antiradical activity (ABTS+)
# [3] = tested on: Micrococcus luteus (DSMZ1605); assay: In vitro antibacterial assay, micro-dilution MIC; type: cell-based; details: 30 °C, 24 h
# p53-HDM2 interaction = tested on: p53-HDM2 interaction; design: method as in PMID 16246554; details: cited from earlier work
# [4] = tested on: Escherichia coli, Micrococcus luteus, Pseudomonas agarici and Staphylococcus warneri; assay: In vitro antibacterial assay, MIC over all the tested bacterial strains; type: cell-based; details: range over four bacterial strains; read-out: MIC ranging over all the tested bacterial strains
# [5] = tested on: Escherichia coli (DSMZ1058); assay: In vitro antibacterial assay, micro-dilution MIC; type: cell-based; details: Escherischia coli, 37 °C, 24 h
# Electric eel AChE = Electric eel AChE (Electrophorus electricus, UniProt O42275); assay: biochemical; details: substrate ATCI, pH 8.0, 25 °C, read-out: IC50 acetylcholinesterase inhibition
# Chain of Electric eel AChE (O42275 24-633): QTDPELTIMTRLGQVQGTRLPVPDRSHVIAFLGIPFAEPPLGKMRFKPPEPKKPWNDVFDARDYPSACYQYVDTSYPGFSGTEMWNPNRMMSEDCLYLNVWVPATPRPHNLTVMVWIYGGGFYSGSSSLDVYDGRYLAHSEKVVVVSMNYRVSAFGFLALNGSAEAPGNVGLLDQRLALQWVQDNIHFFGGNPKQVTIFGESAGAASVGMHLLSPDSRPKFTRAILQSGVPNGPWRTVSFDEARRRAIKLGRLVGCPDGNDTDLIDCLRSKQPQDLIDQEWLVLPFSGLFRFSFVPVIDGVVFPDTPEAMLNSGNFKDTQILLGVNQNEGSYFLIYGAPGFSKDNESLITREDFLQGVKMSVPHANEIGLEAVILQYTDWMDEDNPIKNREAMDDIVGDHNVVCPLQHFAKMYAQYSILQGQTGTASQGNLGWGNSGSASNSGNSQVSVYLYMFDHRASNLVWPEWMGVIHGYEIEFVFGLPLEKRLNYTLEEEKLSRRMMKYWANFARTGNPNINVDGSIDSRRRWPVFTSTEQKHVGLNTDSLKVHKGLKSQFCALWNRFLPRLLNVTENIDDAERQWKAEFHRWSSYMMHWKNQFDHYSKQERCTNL
# [6] = tested on: Staphylococcus warneri (DSMZ20036); assay: In vitro antibacterial assay, micro-dilution MIC; type: cell-based; details: 37 °C, 24 h
# [7] = tested on: Pseudomonas agarici (DSMZ11810); assay: In vitro antibacterial assay, micro-dilution MIC; type: cell-based; details: 30 °C, 24 h
# mucosal-type mast cells = details: cited from earlier work
# [8] = tested on: Trypanosoma cruzi trypomastigotes; design: method as in PMID 28572816; details: cited from earlier work
SMILES,EC50 [1] [µM],EC50 [2] [µM],MIC [3] [µg/mL],inhibition of p53-HDM2 interaction (p53-HDM2 interaction),MIC [4] [µg/mL],MIC [5] [µg/mL],IC50 (Electric eel AChE) [nM],MIC [6] [µg/mL],MIC [7] [µg/mL],effect on the activity of mucosal-type mast cells (mucosal-type mast cells),IC50 anti-Trypanosoma cruzi activity against trypomastigotes [8] [µg/mL]
"Cc1cc(C(C)(C)C)c(O)c(C(C)(C)C)c1 [BHT, butylated hydroxytoluene, reference compound]",0.46,0.06,–,–,–,–,–,–,–,–,–
"C=C(C(=O)O)C(CCCCCC)C(=O)O (stereo not drawn) [Compound 2, hexylitaconic acid]",0.56 ± 0.02,0.88 ± 0.02,0.29,inhibitor,0.17 to 0.58,0.58,1540,0.58,0.29,–,–
"CC(C)[C@@H](C)/C=C/[C@@H](C)[C@H]1CC[C@H]2C3=CC=C4C[C@@H](O)CC[C@]4(C)[C@H]3CC[C@]12C [Compound 3, ergosterol]",1.09 ± 0.02,0.83 ± 0.02,–,–,–,–,1520,–,–,inhibitory effect,51.3
"O=C1CC(O)C(CO)O1 (stereo not drawn) [Compound 1, 2'-deoxyribolactone]",0.66 ± 0.02,0.49 ± 0.02,0.32,–,0.17 to 0.58,0.3,1930,0.17,0.19,–,–
"COc1ccc(O)c(C(C)(C)C)c1 [BHA, butylated hydroxyanisole, reference compound]",0.13,0.01,–,–,–,–,–,–,–,–,–
"CNC(C)C1CCC(N)C(OC2C(N)CC(N)C(OC3OCC(C)(O)C(NC)C3O)C2O)O1 (stereo not drawn) [Gentamicin, reference compound]",–,–,0.01,–,–,0.01,–,0.01,0.01,–,–
